Measurements as given in patent US9901592B2 (priority 2008, dated 2018).
In brackets after ≈: the same amount, converted by molar mass. Several values for one entry are separate records, joined by “and”; a condition that tells them apart may be missing. Equal values may be shown once. Read-outs that look alike come from different tables or passages of the source.

How the values were obtained:
S. pneumoniae [1] = format: cell-based
U. urealyticum = experiment: MIC testing in 10B broth (colour change); format: cell-based; conditions: U. urealyticum (10 isolates)
pneumococci = experiment: microbe, parasite or virus in culture; format: cell-based, S. pneumoniae
S. pneumoniae [2] = experiment: mouse subcutaneous abscess model; format: in vivo; conditions: S. pneumoniae 1629, 10 mg/Kg PO
Method: Example. Efficacy was evaluated in several infection models. […] PD50s were determined 24 hr post infection. CEM-101 was further evaluated in a subcutaneous abscess mouse model against S. pneumoniae. CD-1 female mice were infected via SC injection of bacteria mixed with cyclodextran beads. Two hr post infection, mice received a single oral dose of CEM 101 or control agents. At 48 hr post dose, mice were euthanized, abscesses aseptically removed and bacteria enumerated. CFU per abscess was determined and compared to the untreated control. […] 24 hr post treatment, the thighs were processed and CFU/gram of thigh determined.
Example. Mouse Subcutaneous Abscess. Bacteria were prepared from an overnight plate culture by re-suspending in saline and adjusting the suspension to a 0.1 OD at 625 nm of a 1:10 dilution. The adjusted bacterial suspension was mixed 1:2 with cyclodextran beads prepared as per package instructions. The right flanks of the mice were shaven and injected subcutaneously with 0.2 ml of the bacterial inoculum. Two hours post infection mice were treated via oral gavage with either test article or control drug. 48 hours post infection, mice were euthanized, abscesses aseptically removed, homogenized, serially diluted and plated on bacterial growth agar. After overnight incubation, colonies were counted and CFUs/gram of abscess were determined.
Example. The ability of CEM101 to reduce the microbial load in abscess infection model was also assessed against S. pneumoniae isolates.

S. aureus = experiment: mouse systemic infection model (PD50); format: in vivo
M. catarrhalis = experiment: microbe, parasite or virus in culture; format: cell-based; conditions: Moraxella catarrhalis
U. parvum = experiment: MIC testing in 10B broth (colour change); format: cell-based, Ureaplasma parvum
[3] = test system: intraphagocytic L. pneumophila ATCC 33153 (THP-1); format: cell-based; conditions: intracellular L. pneumophila ATCC 33153
S. pyogenes = format: cell-based
[4] = Streptococcus pneumoniae, pneumococci, L4 mutations (27)

For `CC[C@H]1OC(=O)[C@H](C)C(=O)[C@H](C)[C@@H](O[C@@H]2O[C@H](C)C[C@H](N(C)C)[C@H]2O)[C@](C)(OC)C[C@@H](C)C(=O)[C@H](C)[C@H]2N(CCCCn3cnc(-c4cccnc4)c3)C(=O)O[C@]12C` [TEL, telithromycin], the “single step mutation frequency” value (S. pneumoniae [1]; strain 1077 Macrolide-S, 2 × MIC) was 1.1 × 10^−9, the “single step mutation frequency” value (S. pneumoniae [1]; strain 1077 Macrolide-S, 4 × MIC) was <5.5 × 10^−10 and the “single step mutation frequency” value (S. pneumoniae [1]; strain 1077 Macrolide-S, 8 × MIC) was <5.5 × 10^−10. The “single step mutation frequency” value (S. pneumoniae [1]; strain 1635 Macrolide-R [erm(A)], 2 × MIC) was <2.7 × 10^−9, the “single step mutation frequency” value (S. pneumoniae [1]; strain 1635 Macrolide-R [erm(A)], 4 × MIC) was <2.7 × 10^−9 and the “single step mutation frequency” value (S. pneumoniae [1]; strain 1635 Macrolide-R [erm(A)], 8 × MIC) was <2.7 × 10^−9. For the same molecule, the “single step mutation frequency” value (S. pneumoniae [1]; strain 2686 Macrolide-R [L4 mutation], 2 × MIC) was 2.2 × 10^−5, the “single step mutation frequency” value (S. pneumoniae [1]; strain 2686 Macrolide-R [L4 mutation], 4 × MIC) was 2.2 × 10^−9 and the “single step mutation frequency” value (S. pneumoniae [1]; strain 2686 Macrolide-R [L4 mutation], 8 × MIC) was <1.1 × 10^−9. The “single step mutation frequency” value (S. pneumoniae [1]; strain 3009 Macrolide-R [23S rRNA mutation], 2 × MIC) was 3.8 × 10^−7, the “single step mutation frequency” value (S. pneumoniae [1]; strain 3009 Macrolide-R [23S rRNA mutation], 4 × MIC) was <1.5 × 10^−10 and the “single step mutation frequency” value (S. pneumoniae [1]; strain 3009 Macrolide-R [23S rRNA mutation], 8 × MIC) was <1.5 × 10^−10. The “single step mutation frequency” value (S. pneumoniae [1]; strain 3665 Macrolide-R [mef(A)], 2 × MIC) was 7.5 × 10^−9, the “single step mutation frequency” value (S. pneumoniae [1]; strain 3665 Macrolide-R [mef(A)], 4 × MIC) was 2.5 × 10^−9 and the “single step mutation frequency” value (S. pneumoniae [1]; strain 3665 Macrolide-R [mef(A)], 8 × MIC) was <2.5 × 10^−10. For the same molecule, the “single step mutation frequency” value (S. pneumoniae [1]; strain 7127 Macrolide-S [S20N in L4, A105V in L22], 2 × MIC) was <5.0 × 10^−9, the “single step mutation frequency” value (S. pneumoniae [1]; strain 7127 Macrolide-S [S20N in L4, A105V in L22], 4 × MIC) was <5.0 × 10^−9 and the “single step mutation frequency” value (S. pneumoniae [1]; strain 7127 Macrolide-S [S20N in L4, A105V in L22], 8 × MIC) was <5.0 × 10^−9. For the same molecule, the “MIC Range” value (U. urealyticum) was 0.016 to 0.25 µg/mL, the MIC50 (U. urealyticum; Ureaplasma urealyticum) was 0.063 µg/mL (≈ 0.0776 µM) and the MIC90 (U. urealyticum; Ureaplasma urealyticum) was 0.25 µg/mL (≈ 0.308 µM). For the same molecule, the “MIC Range” value (pneumococci) was 0.03 to 2 µg/mL, the MIC range (pneumococci) was 0.015 to 1 µg/mL and 0.03 to 2 µg/mL and 0.03 to 0.5 µg/mL and 0.03 to 0.06 µg/mL and the MIC50 (pneumococci; [4]) was 0.125 µg/mL (≈ 0.154 µM). It also gave an MIC90 (pneumococci; [4]) of 0.25 µg/mL (≈ 0.308 µM), an MIC (pneumococci; Streptococcus pneumoniae, read-out: MIC range) of 0.015 to 0.03 µg/mL (≈ 0.0185 to 0.0369 µM) and an MIC (pneumococci; Streptococcus pneumoniae, read-out: MIC range, pneumococci, L4 mutations (27)) of 0.06 to 0.25 µg/mL (≈ 0.0739 to 0.308 µM). For the same molecule, the “average log10 CFU/gram of abscess” value (S. pneumoniae [2]; 24 hours) was “about 3 log10 CFU/gram”, the “average log10 CFU/gram of abscess” value (S. pneumoniae [2]; 48 hours) was “about 4.5 log10 CFU/gram” and the PD50 (S. aureus; MRSA 300 (CA)) was 9.2 mg/kg. It also gave a PD50 (S. aureus; S. aureus, single oral dose 1 hr post infection) greater than 30 mg/kg, an MIC50 (M. catarrhalis) of 0.12 µg/mL (≈ 0.148 µM) and an MIC90 (M. catarrhalis) of 0.25 µg/mL (≈ 0.308 µM). For the same molecule, the “MIC Range” value (U. parvum; U. parvum (10 isolates)) was 0.008 to 0.063 µg/mL, the MIC50 (U. parvum; Ureaplasma parvum) was 0.063 µg/mL (≈ 0.0776 µM) and the MIC90 (U. parvum; Ureaplasma parvum) was 0.125 µg/mL (≈ 0.154 µM). For the same molecule, the “Cs, static concentration” value [3] was 0.06 mg/L, the Mutant selection frequencies (S. pyogenes; S. pyogenes, at 2×MIC) was <8.3×10^−11-7.7×10^−8 and the “single step mutation frequency” value (S. pyogenes; strain 237 Macrolide-R [L4 mutation], 2 × MIC) was <2.0 × 10^−10. For the same molecule, the “single step mutation frequency” value (S. pyogenes; strain 237 Macrolide-R [L4 mutation], 4 × MIC) was <2.0 × 10^−10, the “single step mutation frequency” value (S. pyogenes; strain 237 Macrolide-R [L4 mutation], 8 × MIC) was <2.0 × 10^−10 and the “single step mutation frequency” value (S. pyogenes; strain 2011 Macrolide-R [mef(A)], 2 × MIC) was 3.8 × 10^−8. The “single step mutation frequency” value (S. pyogenes; strain 2011 Macrolide-R [mef(A)], 4 × MIC) was <6.3 × 10^−10, the “single step mutation frequency” value (S. pyogenes; strain 2011 Macrolide-R [mef(A)], 8 × MIC) was <6.3 × 10^−10 and the “single step mutation frequency” value (S. pyogenes; strain 2094 Macrolide-R [erm(A)], 2 × MIC) was 7.7 × 10^−8. The “single step mutation frequency” value (S. pyogenes; strain 2094 Macrolide-R [erm(A)], 4 × MIC) was <1.5 × 10^−10, the “single step mutation frequency” value (S. pyogenes; strain 2094 Macrolide-R [erm(A)], 8 × MIC) was <1.5 × 10^−10 and the “single step mutation frequency” value (S. pyogenes; strain 2132 Macrolide-S, 2 × MIC) was <8.3 × 10^−11. For the same molecule, the “single step mutation frequency” value (S. pyogenes; strain 2132 Macrolide-S, 4 × MIC) was <8.3 × 10^−11 and the “single step mutation frequency” value (S. pyogenes; strain 2132 Macrolide-S, 8 × MIC) was <8.3 × 10^−11.
